Source: US8470736B2, “Turfgrass quality” (Syngenta Crop Protection, LLC, priority 2008, dated 2013)

Assays:
Assay type in all cases: in vivo
[1] = tested on: bentgrass (Agrostis palustris) variety Crenshaw; experiment: Turfgrass quality assessment, Example 1
Experimental: (§1) Compositions comprising methyl jasmonate (as a SL formulation, purchased from Fischer), trinexapac-ethyl (in the form of Primo MAXX®), or both (as a tank mix) were tested at various rates for effects on bentgrass (Agrostis palustris) variety Crenshaw. All treatments included the adjuvant NIS, at 0.25% v/v. Assessments of percentage injury to the turfgrass, and turfgrass quality (on a standard scale of 1 to 9) were made at various time intervals after treatment.

[2] = tested on: bentgrass (Agrostis palustris) variety Crenshaw; experiment: Turfgrass colour assessment, Example 1; settings: 43 DA-A (17 DA-B)
Experimental: as §1

[3] = tested on: bentgrass (Agrostis palustris) variety A1; experiment: Colour (greenness) assessment, Example 2; settings: TXP 0 g ai/ha
[4] = tested on: bentgrass (Agrostis palustris) variety Crenshaw; experiment: Percentage injury to the turfgrass, Example 1; settings: TXP 96 g ai/ha, methyl jasmonate 0 g ai/ha
Experimental: Compositions comprising methyl jasmonate (as a SL formulation, purchased from Fischer), trinexapac-ethyl (in the form of Primo MAXX®), or both (as a tank mix) were tested at various rates for effects on bentgrass (Agrostis palustris) variety Crenshaw. All treatments included the adjuvant NIS, at 0.25% v/v.

[5] = tested on: bentgrass (Agrostis palustris) variety A1; experiment: Colour (greenness) assessment, Example 2; settings: jasmonic acid 0 g ai/ha
Experimental: Compositions comprising methyl jasmonate (purchased from Aldrich), trinexapac-ethyl (in the form of Primo MAXX® 120EC), or both (as a tank mix) were tested at various rates for effects on bentgrass (Agrostis palustris) variety A1. Assessments of greenness were made at 5 and 12 days after the second treatment.

CC/C=C\C[C@H]1C(=O)CC[C@@H]1CC(=O)OC [Methyl jasmonate only, methyl (1R,2R)-3-Oxo-2-(2Z)-2-pentenyl-cyclopentaneacetate]
Quality (scale: 1 poor to 9 excellent) ([1]; TXP 0 g ai/ha, methyl jasmonate 168 g ai/ha, 33 DA-A (7 DA-B)): 7.1
Quality (scale: 1 poor to 9 excellent) ([1]; TXP 0 g ai/ha, methyl jasmonate 168 g ai/ha, 43 DA-A (17 DA-B)): 7.2
Quality (scale: 1 poor to 9 excellent) ([1]; TXP 0 g ai/ha, methyl jasmonate 168 g ai/ha, 56 DA-A (30 DA-B)): 7.0
Quality (scale: 1 poor to 9 excellent) ([1]; TXP 0 g ai/ha, methyl jasmonate 336 g ai/ha, 33 DA-A (7 DA-B)): 7.0
Quality (scale: 1 poor to 9 excellent) ([1]; TXP 0 g ai/ha, methyl jasmonate 336 g ai/ha, 43 DA-A (17 DA-B)): 7.2
Quality (scale: 1 poor to 9 excellent) ([1]; TXP 0 g ai/ha, methyl jasmonate 336 g ai/ha, 56 DA-A (30 DA-B)): 7.0
Quality (scale: 1 poor to 9 excellent) ([1]; TXP 0 g ai/ha, methyl jasmonate 670 g ai/ha, 33 DA-A (7 DA-B)): 6.9
Quality (scale: 1 poor to 9 excellent) ([1]; TXP 0 g ai/ha, methyl jasmonate 670 g ai/ha, 43 DA-A (17 DA-B)): 7.0
Quality (scale: 1 poor to 9 excellent) ([1]; TXP 0 g ai/ha, methyl jasmonate 670 g ai/ha, 56 DA-A (30 DA-B)): 7.0
Colour (scale: 1 poor to 9 excellent) ([2]; TXP 0 g ai/ha, methyl jasmonate 168 g ai/ha): 7.2
Colour (scale: 1 poor to 9 excellent) ([2]; TXP 0 g ai/ha, methyl jasmonate 336 g ai/ha): 7.2
Colour (scale: 1 poor to 9 excellent) ([2]; TXP 0 g ai/ha, methyl jasmonate 670 g ai/ha): 7.0
Greenness (scale of 1-10 by comparison with the untreated control) ([3]; jasmonic acid 168 g ai/ha, 5 DA-B): 0.0
Greenness (scale of 1-10 by comparison with the untreated control) ([3]; jasmonic acid 168 g ai/ha, 12 DA-B): 0.5
Greenness (scale of 1-10 by comparison with the untreated control) ([3]; jasmonic acid 336 g ai/ha, 5 DA-B): 0.0
Greenness (scale of 1-10 by comparison with the untreated control) ([3]; jasmonic acid 336 g ai/ha, 12 DA-B): 0.0
Greenness (scale of 1-10 by comparison with the untreated control) ([3]; jasmonic acid 672 g ai/ha, 5 DA-B): 0.0
Greenness (scale of 1-10 by comparison with the untreated control) ([3]; jasmonic acid 672 g ai/ha, 12 DA-B): 0.0

CCOC(=O)C1CC(=O)C(=C(O)C2CC2)C(=O)C1 (stereo not shown) [Trinexapac-ethyl only, trinexapac-ethyl]
Quality (scale: 1 poor to 9 excellent) ([1]; TXP 96 g ai/ha, methyl jasmonate 0 g ai/ha, 33 DA-A (7 DA-B)): 7.2
Quality (scale: 1 poor to 9 excellent) ([1]; TXP 96 g ai/ha, methyl jasmonate 0 g ai/ha, 43 DA-A (17 DA-B)): 7.4
Quality (scale: 1 poor to 9 excellent) ([1]; TXP 96 g ai/ha, methyl jasmonate 0 g ai/ha, 56 DA-A (30 DA-B)): 7.0
Colour (scale: 1 poor to 9 excellent) ([2]; TXP 96 g ai/ha, methyl jasmonate 0 g ai/ha): 7.3
Injury (%) ([4]; 8 DA-A): 5%
Injury (%) ([4]; 14 DA-A): 7%
Greenness (scale of 1-10 by comparison with the untreated control) ([5]; TXP 57 g ai/ha, 5 DA-B): 0.0
Greenness (scale of 1-10 by comparison with the untreated control) ([5]; TXP 57 g ai/ha, 12 DA-B): 0.0
Greenness (scale of 1-10 by comparison with the untreated control) ([5]; TXP 96 g ai/ha, 5 DA-B): 3.5
Greenness (scale of 1-10 by comparison with the untreated control) ([5]; TXP 96 g ai/ha, 12 DA-B): 3.5
